These results are taken from ChEMBL document CHEMBL1759983, “Design and SAR of macrocyclic Hsp90 inhibitors with increased metabolic stability and potent cell-proliferation activity” (Bioorg Med Chem Lett, 2011).

Converted amounts (≈) assume the structure as drawn. Bounds are passed on as bounds.

The nature of data set [1]: Aqueous solubility of the compound. Format: physicochemical.
In the next data set the test system is HCT-116. The data set is described as follows: Antiproliferative activity against human HCT116 cells measured on day 4 by Cell titer-glo assay. Type of data set: functional, cell-based. (In general: Cellular ATP, detected with luciferase, serves as a proxy for viable cell number.)
Data set [2] addresses Heat shock protein HSP 90-alpha (Homo sapiens, UniProt P07900).
Description: Inhibition of Hsp90alpha after 3 hrs by fluorescence polarization assay
The next data set in a line: in vitro. Conditions: rat, liver microsomes. Background: Liver microsomes are a subcellular fraction often used to study metabolism.

In general, solubility refers to the dissolved amount per volume that the medium holds. A high value points to a readily soluble substance. With `Cc1c2c(n3c1CCCNC[C@H](C)Nc1cc-3ccc1C(N)=O)CC(C)(C)CC2=O`, the solubility in data set [1] was over 100 µg/mL.

Usually EC50 stands for the concentration that produces a half-maximal response. A high value points to lower potency in that assay. In general, IC50 refers to the midpoint of a concentration-inhibition curve. Turning to `Cc1c2c(n3c1CCNCCCNc1cc-3ccc1C(N)=O)CC(C)(C)CC2=O`, in the data set with HCT-116 (Homo sapiens, HCT-116, 96 h), the EC50 is 8140 nM. In data set [2], this compound yielded an IC50 of 400 nM.

The term half-life denotes the time in which the quantity being followed falls by half. Turning to `Cc1c2c(n3c1CCNCCNc1cc-3ccc1C(N)=O)CC(C)(C)CC2=O`, the solubility in data set [1] was over 100 µg/mL. This compound returned a half-life in the data set “in vitro” of 15 min. This compound gave a half-inhibitory concentration (IC50) in data set [2] of 12400 nM.

With `Cc1c2c(n3c1CCCNCC(C)(C)CNc1cc-3ccc1C(N)=O)CC(C)(C)CC2=O`, the concentration in solution in data set [1] (solubility) was 6 µg/mL (≈ 13.7 µM). For the same compound, the EC50 in the data set on HCT-116 (hct-116) was determined as 210 nM. Further, the half-life in the data set “in vitro” was found to be 3 min. The compound further yielded an IC50 in data set [2] of 290 nM.

As to `Cc1c2c(n3c1CCCNC(C)(C)CNc1cc-3ccc1C(N)=O)CC(C)(C)CC2=O`, the solubility in data set [1] was 52 µg/mL (≈ 123 µM). For the same compound, the midpoint of the response with HCT-116 (hct-116), the EC50, lay at 80 nM. Also, the half-life in “in vitro” was 15 min. Further, 140 nM corresponded to half-maximal inhibition in data set [2] (IC50).

In the case of `Cc1c2c(n3c1CCCNCCNc1cc-3ccc1C(N)=O)CC(C)(C)CC2=O`, in data set [1], the concentration in solution (solubility) was 35 µg/mL (≈ 88.7 µM). The compound further registered an EC50 with HCT-116 (Homo sapiens, HCT-116, 96 h) of 820 nM. In the data set “in vitro”, this compound came in with a half-life of over 30 min. The same compound displayed an IC50 in data set [2] of 920 nM.

In data set [1], `Cc1c2c(n3c1CCNCC[C@H](C)Nc1cc-3ccc1C(N)=O)CC(C)(C)CC2=O` displayed a solubility of 67 µg/mL (≈ 164 µM).

Compound `Cc1c2c(n3c1CCCNCC(C)(C)Nc1cc-3ccc1C(N)=O)CC(C)(C)CC2=O` gave a solubility in data set [1] of 45 µg/mL (≈ 106 µM). The compound further showed an EC50 in the data set on HCT-116 (Homo sapiens, HCT-116, 96 h) of 620 nM. In “in vitro”, this compound returned a half-life of over 30 min. In data set [2], the IC50 is 830 nM.

On to `Cc1c2c(n3c1CCNCC(C)CNc1cc-3ccc1C(N)=O)CC(C)(C)CC2=O` (stereo not drawn), for which, in data set [1], the solubility stood at 39 µg/mL (≈ 95.5 µM). In the data set on HCT-116 (Homo sapiens, HCT-116, 96 h), the EC50 was determined as 250 nM. For the same compound, the half-life in “in vitro” was 5 min. The IC50 in data set [2] worked out at 360 nM.

The compound `Cc1c2c(n3c1CCNCC(O)CNc1cc-3ccc1C(N)=O)CC(C)(C)CC2=O` (stereo not drawn) returned a solubility in data set [1] of 70 µg/mL (≈ 171 µM). In addition, it took 600 nM to reach a half-maximal effect in the data set on HCT-116 (Homo sapiens, HCT-116, 96 h) (EC50). In addition, in the data set “in vitro”, the half-life amounted to 10 min. In data set [2], this compound gave an IC50 of 320 nM.

`Cc1c2c(n3c1CCNCCOCCNc1cc-3ccc1C(N)=O)CC(C)(C)CC2=O` registered a solubility in data set [1] of 73 µg/mL (≈ 172 µM). In the data set with HCT-116 (Homo sapiens, HCT-116, 96 h), it took 830 nM to reach a half-maximal effect (EC50). This compound came in with a half-life in the data set “in vitro” of 28 min. In addition, the midpoint of inhibition in data set [2], the IC50, lay at 570 nM.

With `Cc1c2c(n3c1CNCCCCNc1cc-3ccc1C(N)=O)CC(C)(C)CC2=O`, the solubility in data set [1] was 18 µg/mL (≈ 45.6 µM). This compound displayed an EC50 in the data set on HCT-116 (Homo sapiens, HCT-116, 96 h) of over 5000 nM. The compound also came in with a half-life in the data set “in vitro” of 18 min. For the same compound, the 50% inhibitory concentration (IC50) in data set [2] was over 5000 nM.

In data set [1], `Cc1c2c(n3c1CNCCC[C@H](C)Nc1cc-3ccc1C(N)=O)CC(C)(C)CC2=O` displayed a solubility of 16 µg/mL (≈ 39.2 µM). Moreover, the EC50 with HCT-116 (Homo sapiens, HCT-116, 96 h) was over 5000 nM. In addition, the half-life in the data set “in vitro” stood at 7 min. The IC50 in data set [2] is over 5000 nM.

As to `Cc1c2c(n3c1CCC(C)NCCNc1cc-3ccc1C(N)=O)CC(C)(C)CC2=O` (stereo not drawn), the solubility in data set [1] amounted to 69 µg/mL (≈ 169 µM). The same compound returned an EC50 in the data set with HCT-116 (Homo sapiens, HCT-116, 96 h) of 940 nM. The half-life in the data set “in vitro” was determined as 26 min. The compound further returned an IC50 in data set [2] of 1240 nM.

`Cc1c2c(n3c1CC[C@@H](C)N[C@H](C)CNc1cc-3ccc1C(N)=O)CC(C)(C)CC2=O`: the solubility in data set [1] was over 100 µg/mL. For the same compound, a half-maximal response in the data set on HCT-116 (Homo sapiens, HCT-116, 96 h) (EC50) required 30 nM. The half-life in “in vitro” was 15 min. It took 90 nM to reach half-maximal inhibition in data set [2] (IC50).

For `Cc1c2c(n3c1CC[C@H](C)N[C@H](C)CNc1cc-3ccc1C(N)=O)CC(C)(C)CC2=O`, in data set [1], the solubility came out at 58 µg/mL (≈ 137 µM). Also, the EC50 with HCT-116 (Homo sapiens, HCT-116, 96 h) was found to be 360 nM. Besides, in the data set “in vitro”, the half-life was determined as 7 min. The IC50 in data set [2] worked out at 430 nM.

In data set [1], `Cc1c2c(n3c1CCCN(C)C[C@H](C)Nc1cc-3ccc1C(N)=O)CC(C)(C)CC2=O` gave a solubility of 31 µg/mL (≈ 73.4 µM). In addition, it took 80 nM to reach a half-maximal effect in the data set on HCT-116 (hct-116) (EC50). Also, the half-life in the data set “in vitro” was 11 min. The IC50 in data set [2] amounted to 150 nM.

In data set [1], `CC(=O)N1CCc2c(C)c3c(n2-c2ccc(C(N)=O)c(c2)N[C@@H](C)CC1)CC(C)(C)CC3=O` registered a solubility of 19 µg/mL (≈ 42.2 µM). The compound further came in with a half-maximal effective concentration (EC50) in the data set with HCT-116 (Homo sapiens, HCT-116, 96 h) of 150 nM. In addition, the half-life in “in vitro” was determined as 9 min. Also, it took 110 nM to reach half-maximal inhibition in data set [2] (IC50).
